Holding throughout (assay): NCI tumour cell line growth inhibition, 48 h
In assay [1] the test system is OVCAR-4 ovarian.
The test system of assay [2] is MOLT-4 leukemia.
Assay [3] deals with COLO 205 colon.
Assay [4] has as its system SF-268 CNS.
The test system of assay [5] is SR leukemia.
Assay [6] deals with UACC-62 melanoma.
The subject of assay [7] is UO-31 renal.
Assay [8] concerns U251 CNS.
For assay [9], the system named is A549 NSCLC.
Assay [10] has as its system SN12C renal.

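Grown in 96-well plates, cells were treated for 48 hours with each compound at five concentrations. Insufficient inhibition: endpoint recorded as highest concentration tested. TGI is the concentration that stops growth completely.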 Where only a bound is given, the exact number is not on record here.

`CN(C)Cc1cc(C(C)(C)C)ccc1-c1ccc(C(C)(C)C)cc1CN(C)C`: the TGI in assay [1], in assay [2], in assay [3], in [4], in [5] and in assay [6] was > 100 µM in each case. Further, the TGI in assay [7], in assay [8], in assay [9] and in [10] was > 100 µM in each case.
On to `CC(=O)Oc1cc2c(c3ncccc13)OC(C)(C)C2`, for which the TGI in assay [1] was 25.5 µM; in assay [2], 29.9 µM; in assay [3], 35 µM; in [4] it was 25.9 µM; in assay [5] it was 6 µM; in [6], > 100 µM. Further, the TGI was > 100 µM in assay [7], 31.8 µM in assay [8], 27.4 µM in assay [9] and 25.9 µM in assay [10].
`CCCCOC(=O)NC(Nc1cccc(C(F)(F)F)c1)(C(F)(F)F)C(F)(F)F`: the TGI in assay [1] is > 100 µM; in assay [2], > 100 µM; in assay [3] it was > 100 µM; in [4], > 100 µM; in assay [5], 60.4 µM; in assay [6], > 100 µM. Also, the TGI in [7], in assay [8], in [9] and in assay [10] was > 100 µM in each case.
On to `CCCC(=O)O[C@H]1C=C2C[C@@]34SS[C@]5(CC6=C[C@H](OC(C)=O)[C@@H]7O[C@@H]7[C@H]6N5C3=O)C(=O)N4[C@@H]2[C@H]2O[C@H]21`, for which the TGI in assay [1] turned out to be 0.887 µM; in assay [2] it was 1.91 µM; in [3], 0.0637 µM; in assay [4], 0.119 µM; in [5], 50 µM; in [6], 0.0851 µM. The TGI in assay [7] worked out at 0.173 µM; in assay [8], 0.113 µM; in assay [9], 1.68 µM; in [10] it was 0.0111 µM.
Regarding `O=C(Nc1c(C(F)(F)F)cc(-c2ccccc2)[nH]c1=O)N1CCOCC1`, the TGI in [1], in [2], in [3], in [4], in [5] and in [6] was > 100 µM throughout. Also, the TGI in assay [7], in assay [8], in assay [9] and in [10] was > 100 µM throughout.
Take `COc1cc(C(=O)O[C@@H]2[C@@H](OC(=O)c3cc(OC)c(OC)c(OC)c3)[C@@H](OC)O[C@@H]3CO[C@@H](c4ccccc4)O[C@@H]23)cc(OC)c1OC`: the TGI in [1], in assay [2], in [3], in [4], in assay [5] and in assay [6] was > 100 µM throughout. In addition, the TGI in [7], in [8], in [9] and in assay [10] was > 100 µM in each case.
Turning to `O=C1CC(=O)NC(=NN2C(=O)/C(=C/c3ccccc3)N=C2c2ccccc2)N1`, the TGI was > 100 µM in assay [1]; > 100 µM in [2]; > 100 µM in assay [3]; > 100 µM in assay [4]; > 100 µM in assay [5]; 96.5 µM in assay [6]. The TGI in assay [7], in assay [8], in assay [9] and in assay [10] was > 100 µM each time.
Turning to `C[C@]12Cc3cnn(-c4ccc(F)cc4)c3NC1CC[C@@H]1C2CC[C@@]2(C)C1CC[C@@H]2O` (stereo not given in full), the TGI in assay [1] worked out at 27.5 µM; in assay [2] it was 16.3 µM; in [3], 10.3 µM; in [4] it was 37.9 µM; in [5], 12.8 µM; in [6] it was 23.3 µM. The TGI is 22.5 µM in [7], 21.7 µM in [8], 30.7 µM in assay [9] and 30.4 µM in assay [10].
As for `CC1(C)CC23CC(C)(C)c4cccc(c42)OCc2ccc4ccc5ccc(nc5c4n2)COc2cccc1c23`, the TGI in [1], in assay [2], in assay [3], in assay [4], in assay [5] and in [6] was > 50 µM in each case. Also, the TGI in assay [7], in [8], in assay [9] and in assay [10] was > 50 µM in each case.
For the molecule `Cc1cccc(CC(Cc2c(C)cccc2C(=O)O)C(=O)O)c1` (stereo not given), the TGI in assay [1] is > 100 µM; in assay [2], > 100 µM; in assay [3], > 100 µM; in assay [4], > 100 µM; in assay [5], > 100 µM; in [6] it was 10.6 µM. Besides, the TGI in assay [7], in assay [8], in assay [9] and in assay [10] was > 100 µM each time.
Consider `Nc1ncc(Cl)c(NCC2(CO)CC(CCc3ccccc3)C2)n1` (stereo not given), for which the TGI in assay [1], in assay [2], in assay [3], in assay [4], in assay [5] and in [6] was > 100 µM in each case. The TGI in [7], in [8], in [9] and in assay [10] was > 100 µM each time.
With `CC(C)(C)OC(=O)N(O)CCCn1cnc2c(N)ncnc21`, the TGI in assay [1], in [2], in assay [3], in assay [4], in assay [5] and in assay [6] was > 100 µM each time. In addition, the TGI in [7], in assay [8], in [9] and in assay [10] was > 100 µM each time.
As for `CCOC(=O)c1nc2ccccc2nc1Nc1ccc(OC)c(OC)c1`, the TGI in [1], in [2], in [3], in assay [4], in [5] and in assay [6] was > 100 µM throughout. Further, the TGI in assay [7], in assay [8], in [9] and in assay [10] was > 100 µM in each case.
Regarding `CC=CCOc1cc(NC(=S)OC(C)C)ccc1Cl` (mixture of isomers), the TGI in [1] amounted to 32.4 µM; in assay [2], 38.8 µM; in assay [3], 33.3 µM; in assay [4], 37.9 µM; in assay [5], 44.6 µM; in [6], 30.7 µM. In addition, the TGI came out at 24.7 µM in [7], 32.8 µM in assay [8], 33.1 µM in [9] and 29 µM in assay [10].
In the case of `OC[C@]1(n2nc3ccccc3n2)OC[C@@H]1c1ccccc1`, the TGI was 70.7 µM in assay [1]; > 100 µM in assay [2]; > 100 µM in [3]; > 100 µM in assay [4]; > 100 µM in assay [5]; > 100 µM in assay [6]. Also, the TGI in [7], in assay [8], in assay [9] and in assay [10] was > 100 µM throughout.
Turning to `c1ccc(C2=NOC3(c4ccccc4)SC4CCCCC4CN23)cc1` (stereo not given), the TGI is > 100 µM in assay [1]; 51.3 µM in [2]; 69.4 µM in assay [3]; 95.5 µM in [4]; > 100 µM in assay [5]; 83.1 µM in assay [6]. Besides, the TGI was > 100 µM in assay [7], 37.6 µM in assay [8], 58.5 µM in assay [9] and > 100 µM in assay [10].
`O=C(C[n+]1ccccc1)N/N=C(\Cc1nc2ccc([N+](=O)[O-])cc2[nH]c1=O)C(=O)Nc1cc(Cl)c(Cl)cc1Cl`: the TGI in [1], in assay [2], in [3], in assay [4], in assay [5] and in assay [6] was > 100 µM each time. Further, the TGI in assay [7], in assay [8], in assay [9] and in [10] was > 100 µM throughout.
For `C=C1C(=O)OC2/C=C(/C)C3CC(O)C(C)(CC(OC(=O)/C(C)=C/C)C12)O3` (stereo not given), the TGI was 20.6 µM in assay [1]; > 26.8 µM in [2]; 3.08 µM in assay [3]; 14.4 µM in assay [4]; > 24 µM in [5]; 5.22 µM in assay [6]. Also, the TGI in assay [7] came to 18.3 µM; in assay [8], 25.3 µM; in assay [9], 23.6 µM; in [10], 11.3 µM.
As to `COc1cc(/C=C2/SC(c3ccccc3)N(c3ccccc3)C2=O)cc(OC)c1OC` (stereo not given), the TGI in [1], in assay [2], in assay [3], in [4], in assay [5] and in assay [6] was > 100 µM throughout. Moreover, the TGI in [7], in assay [8], in assay [9] and in assay [10] was > 100 µM throughout.
Regarding `CC(C)(C)c1cc2c(O)c(c1)Cc1cc(C(C#N)(Cc3ccc4ccccc4c3)Cc3ccc4ccccc4c3)cc(c1O)Cc1cc(C(C)(C)C)cc(c1O)Cc1cc(C(C#N)(Cc3ccc4ccccc4c3)Cc3ccc4ccccc4c3)cc(c1O)C2`, the TGI in assay [1], in assay [2], in [3], in assay [4], in assay [5] and in [6] was > 100 µM throughout. For the same molecule, the TGI in [7], in assay [8], in assay [9] and in [10] was > 100 µM throughout.
For `COP(=O)(Cc1ccccc1)Cc1ccccc1`, the TGI in assay [1], in assay [2], in [3], in assay [4], in [5] and in assay [6] was > 100 µM throughout. Also, the TGI in [7], in assay [8], in [9] and in assay [10] was > 100 µM throughout.
Consider `O=C(O)CS`, for which the TGI in assay [1], in assay [2], in [3], in [4], in [5] and in [6] was > 100 µM in each case. The TGI in [7], in assay [8], in [9] and in assay [10] was > 100 µM in each case.
Consider `CS(=O)(=O)c1c(N)c2nc(Cl)cn2c2nc3ccccc3nc12`, for which the TGI in [1], in assay [2], in assay [3], in [4], in [5] and in assay [6] was > 100 µM each time. In addition, the TGI in assay [7], in assay [8], in assay [9] and in assay [10] was > 100 µM throughout.
As to `CCOP(=O)(C/C=C/Cn1nc(Br)c(=O)[nH]c1=O)OCC`, the TGI in assay [1], in [2], in [3], in assay [4], in assay [5] and in assay [6] was > 100 µM in each case. Further, the TGI in assay [7], in [8], in [9] and in [10] was > 100 µM each time.
For `O=C(Nc1nn(C(=O)c2ccc(Cl)cc2)c(=O)s1)c1ccc(Cl)cc1`, the TGI in assay [1], in assay [2], in [3], in assay [4], in assay [5] and in assay [6] was > 100 µM throughout. The TGI in assay [7], in assay [8], in assay [9] and in assay [10] was > 100 µM in each case.
In the case of `CC(=O)NNc1nc(C)c(C(/C=C/c2ccc([N+](=O)[O-])cc2)=N/NC(N)=S)s1`, the TGI in [1], in [2], in assay [3], in assay [4], in [5] and in assay [6] was > 100 µM each time. The TGI in [7], in assay [8], in assay [9] and in [10] was > 100 µM throughout.

(Values after PubChem BioAssay (NCI).)
